From patent publication US8404651B2, “Compositions and methods for treating viral infections” (priority 2008, dated 2013)
“And” between values parts separate entries of the source, which are not always exact repeats. Identical values can stand only once.

Experiments:
[1] = tested on: HCV replicon cell line, AVA5 [sub-genomic (CON1), genotype 1b]; assay: microbe, parasite or virus in culture; assay type: cell-based; details: Hepatitis C virus
Protocol: (§1) Primary anti-HCV assay-Antiviral activity against HCV was assessed in a 3-day assay (Okuse, et al., 2005; Antiviral. Res. 65:23; Korba, et al., 2008, Antiviral Res. 77:56) using the stably-expressing HCV replicon cell line, AVA5 [sub-genomic (CON1), genotype 1b](Blight, et al., 2000, Science 290:1972) maintained as sub-confluent cultures on 96-well plates. Antiviral activity was determined by blot hybridization analysis of intracellular HCV RNA (normalized to the level of cellular B-actin RNA in each culture sample). Cytotoxicity was assessed by neutral red dye uptake in cultures maintained in parallel plates.
(§2) EC50, EC90, and CC50 values were calculated by linear regression analysis (MS EXCEL®, QUATTROPRO®) using data combined from all treated cultures Korba & Gerin, 1992, Antivir. Res. 19:55; Okuse, et al., 2005, Antivir. Res. 65:23). Standard deviations for EC50 and EC90 values were calculated from the standard errors generated by the regression analyses. […] The Selectivity index (S.I.) was calculated as CC50/EC50. Recombinant human interferon 2b (PBL laboratories, Inc.) was used as an assay control.
(§3) For each combination of agents, three concentration ratios, centered on the use of the compounds at equipotent antiviral concentrations, were used. A dilution series (six three-fold-concentration steps, beginning at the approximate EC90) was then generated with the concentration ratio of the two agents remaining the same in each dilution step. Toxicity analysis was performed as described above for the monotherapies. Analysis of drug interactions in the combination studies was determined by the use of the […] program (Biosoft, Inc., Cambridge, United Kingdom). This program evaluates synergy, additivity, or antagonism by use of several methodologies, including that of Chou and Talalay with a statistical analysis employing the Monte Carlo technique to provide confidence limits, fraction-affected-confidence interval (FA-CI) plots, isobolograms, and median-effect plots. (Belenkii, M. S. Schinazi, R. A method for the analysis of combination therapies with statistical analysis. Antiviral Res. 25, 11, 2005).

[2] = tested on: replicon cell line containing H/FL-Neo (genotype 1a (H77), full length construct); assay: Secondary anti-HCV assay: genotype 1a replicon, format of the primary assay; assay type: cell-based; details: Hepatitis C virus
Source text: Res. 19:55; Okuse, et al., 2005, Antivir. Res. 65:23).
Secondary anti-HCV assay—This assay assesses activity against different HCV genotypes using the format described for the primary assay. Activity against the genotype 1b HCV is included for comparison. Currently available is a replicon cell line containing H/FL-Neo (genotype 1a (H77), full length construct) (Blight, et al., 2003, J. Virol. 77:3181).

[3] = Cytotoxicity by neutral red dye uptake in replicon cultures in parallel plates; details: human
Protocol: as §1, §2, §3

[4] = tested on: HCV replicon cell line, AVA5; assay: as above; details: Table 5, Compound 2 alone or in combination, genotype 1B
Protocol: as §1, §2, §3

[5] = MTT cytotoxicity assay, HFF; assay type: cell-based; details: human, HFF cells, 24-hour incubation
Protocol: Cellular cytotoxicity profile of the compounds was carried out against a panel of cell lines. Standard MTT assays were performed in 96-well plates using the Promega CellTiter96 Non-radioactive Cell Proliferation Assay Kit in conjunction with a 96-well Plate Reader (ThermoMax, Molecular devices), and MDBK, Vero, and HFF cell lines (obtained from ATCC). Several controls were employed including the nucleoside analogs 3TC, AZT, and ddC, as well as, media without drugs. SDS was used as a positive cytotoxic control. The compounds were tested in triplicate at concentrations of 100, 300, and 1000 μM. Following a 24-hour incubation of cells with the test substance, the MTT assay was carried out.

TA98 = assay: In vitro bacterial mutagenicity assay (pre-incubation), strain TA98; details: for Number of revertants x1, x2, x3: individual plates
Protocol: (§4) Dispense 100 microliter aliquots of the appropriate bacterial cultures into sample tubes stored on ice. Dispense aliquots of the vehicle, positive controls or dose formulations into the appropriate sample tubes. 2 mL top Agar and HBT cap was added to the sample tube, inverted three times and poured into MG plate. The lid was replaced on the plate and left on a level surface to let the agar harden. The plates were incubated in an incubator for 48 to 72 h. The background lawn and count the number of revertants was checked for each plate.

TA100 = assay: In vitro bacterial mutagenicity assay (pre-incubation), strain TA100; details: for Number of revertants x1, x2, x3: individual plates
Protocol: as §4

WP2 uvrA = assay: In vitro bacterial mutagenicity assay (pre-incubation), strain WP2 uvrA; details: for Number of revertants x1, x2, x3: individual plates
Protocol: as §4

[6] = TA98, absence of S9, 50 μg/plate
[7] = TA98, absence of S9, 158 μg/plate
[8] = TA98, absence of S9, 500 μg/plate
[9] = TA98, absence of S9, 1581 μg/plate
[10] = TA98, absence of S9, 5000 μg/plate
[11] = TA98, presence of S9, 50 μg/plate
[12] = TA98, presence of S9, 158 μg/plate
[13] = TA98, presence of S9, 500 μg/plate
[14] = TA98, presence of S9, 1581 μg/plate
[15] = TA98, presence of S9, 5000 μg/plate
[16] = TA100, absence of S9, 50 μg/plate
[17] = TA100, absence of S9, 158 μg/plate
[18] = TA100, absence of S9, 500 μg/plate
[19] = TA100, absence of S9, 1581 μg/plate
[20] = TA100, absence of S9, 5000 μg/plate
[21] = TA100, presence of S9, 50 μg/plate
[22] = TA100, presence of S9, 158 μg/plate
[23] = TA100, presence of S9, 500 μg/plate
[24] = TA100, presence of S9, 1581 μg/plate
[25] = TA100, presence of S9, 5000 μg/plate

COC1C(OP(=O)(OC[C@H]2O[C@@H](n3cnc4c(N)ncnc43)CC2O)SCOC(=O)OC(C)C)[C@@H](CO)O[C@H]1n1ccc(=O)[nH]c1=O (stereo partly shown) [Compound 2, S-isopropylcarbonyloxymethyl thiophosphate (6k) of 3′dApsU2′OMe]
EC50 ([1]; Ava5, read-out: EC50 HCV type 1B): 1 µM
EC90 ([1]; Ava5, read-out: EC90 HCV type 1B): 6 µM
EC50 ([2]; read-out: EC50 HCV Type 1A): 2.2 µM
EC90 ([2]; read-out: EC90 HCV type 1A): 8 µM
CC50 at 3 day [3]: > 100 µM
CC50 [4]: > 100 µM
CC50 at 24 h [5]: > 1000 µM
Number of revertants mean (TA98; [6]): 22
Number of revertants x1, x2, x3 (TA98; [6]): 18 and 15 and 33
Number of revertants mean (TA98; [7]): 27
Number of revertants x1, x2, x3 (TA98; [7]): 28 (2×) and 25
Number of revertants mean (TA98; [8]): 24
Number of revertants x1, x2, x3 (TA98; [8]): 21 and 20 and 31
Number of revertants mean (TA98; [9]): 25
Number of revertants x1, x2, x3 (TA98; [9]): 24 and 18 and 33
Number of revertants mean (TA98; [10]): 24
Number of revertants x1, x2, x3 (TA98; [10]): 27 and 26 and 20
Number of revertants mean (TA98; [11]): 45
Number of revertants x1, x2, x3 (TA98; [11]): 43 and 39 and 53
Number of revertants mean (TA98; [12]): 40
Number of revertants x1, x2, x3 (TA98; [12]): 37 and 48 and 34
Number of revertants mean (TA98; [13]): 39
Number of revertants x1, x2, x3 (TA98; [13]): 31 and 40 and 46
Number of revertants mean (TA98; [14]): 45
Number of revertants x1, x2, x3 (TA98; [14]): 44 (2×) and 46
Number of revertants mean (TA98; [15]): 44
Number of revertants x1, x2, x3 (TA98; [15]): 53 and 36 and 43
Number of revertants mean (TA100; [16]): 112
Number of revertants x1, x2, x3 (TA100; [16]): 98 and 112 and 127
Number of revertants mean (TA100; [17]): 121
Number of revertants x1, x2, x3 (TA100; [17]): 110 and 133 and 119
Number of revertants mean (TA100; [18]): 133
Number of revertants x1, x2, x3 (TA100; [18]): 134 and 127 and 138
Number of revertants mean (TA100; [19]): 113
Number of revertants x1, x2, x3 (TA100; [19]): 122 and 107 and 109
Number of revertants mean (TA100; [20]): 115
Number of revertants x1, x2, x3 (TA100; [20]): 98 and 126 and 122
Number of revertants mean (TA100; [21]): 107
Number of revertants x1, x2, x3 (TA100; [21]): 111 and 109 and 100
Number of revertants mean (TA100; [22]): 120
Number of revertants x1, x2, x3 (TA100; [22]): 115 and 133 and 111
Number of revertants mean (TA100; [23]): 126
Number of revertants x1, x2, x3 (TA100; [23]): 134 and 137 and 108
Number of revertants mean (TA100; [24]): 126
Number of revertants x1, x2, x3 (TA100; [24]): 136 and 122 and 121
Number of revertants mean (TA100; [25]): 126
Number of revertants x1, x2, x3 (TA100; [25]): 122 and 130 and 126
Number of revertants mean (WP2 uvrA; absence of S9, 50 μg/plate): 41
Number of revertants x1, x2, x3 (WP2 uvrA; absence of S9, 50 μg/plate): 34 and 43 and 45
Number of revertants mean (WP2 uvrA; absence of S9, 158 μg/plate): 42
Number of revertants x1, x2, x3 (WP2 uvrA; absence of S9, 158 μg/plate): 49 and 44 and 33
Number of revertants mean (WP2 uvrA; absence of S9, 500 μg/plate): 34
Number of revertants x1, x2, x3 (WP2 uvrA; absence of S9, 500 μg/plate): 39 and 26 and 38
Number of revertants mean (WP2 uvrA; absence of S9, 1581 μg/plate): 50
Number of revertants x1, x2, x3 (WP2 uvrA; absence of S9, 1581 μg/plate): 44 and 56 and 51
Number of revertants mean (WP2 uvrA; absence of S9, 5000 μg/plate): 52
Number of revertants x1, x2, x3 (WP2 uvrA; absence of S9, 5000 μg/plate): 62 and 39 and 54
Number of revertants mean (WP2 uvrA; presence of S9, 50 μg/plate): 44
Number of revertants x1, x2, x3 (WP2 uvrA; presence of S9, 50 μg/plate): 48 and 43 and 42
Number of revertants mean (WP2 uvrA; presence of S9, 158 μg/plate): 43
Number of revertants x1, x2, x3 (WP2 uvrA; presence of S9, 158 μg/plate): 46 and 43 and 40
Number of revertants mean (WP2 uvrA; presence of S9, 500 μg/plate): 41
Number of revertants x1, x2, x3 (WP2 uvrA; presence of S9, 500 μg/plate): 36 and 46 and 40
Number of revertants mean (WP2 uvrA; presence of S9, 1581 μg/plate): 47
Number of revertants x1, x2, x3 (WP2 uvrA; presence of S9, 1581 μg/plate): 52 and 43 and 45
Number of revertants mean (WP2 uvrA; presence of S9, 5000 μg/plate): 62
Number of revertants x1, x2, x3 (WP2 uvrA; presence of S9, 5000 μg/plate): 61 and 60 and 65
